Source: patent publication US20150265572A1, “INJECTABLE CANCER COMPOSITIONS” (GENSPERA, INC., priority 2012, published 2015)
Starred links: 1 amine or outer side, 2 acyl side, 3 side chain; linkers in the order of their positions; H or OH if unused. Non-standard residues stand in square brackets, D forms with d. Residues, ends and D or L forms follow the SMILES beside them. γGlu = O=C(O)[C@H](CCC(=O)[*:2])N[*:1]

Columns and labels:
[1] = tested on: TSU prostate cancer cell line; experiment: LD50 for killing against TSU prostate cancer cell line; type: cell-based, human; details: TSU prostate cancer cell line (non-PSMA producing)
Source text: The prodrugs are hydrolyzed by PSMA and release the corresponding Asp- or Glu-containing thapsigargin analogs, or the thapsigargin analog itself, and also lack potent cytotoxicity when not metabolized by PSMA. Non-PSMA producing TSU-Pr1 human prostate cancer cell line is exposed to each of the PSMA prodrugs at doses that are approximately 50-times the LD50 for the corresponding free thapsigargin analog.

[2] = Stability of peptides in serum; type: in vitro ADME
[3] = Stability to hydrolysis in mouse plasma; type: in vitro ADME
[4] = Stability to hydrolysis in human plasma; type: in vitro ADME

12ADT-Glu [Composition 12ADT-Glu]
LD50 value for killing [1]: approximately 50 nM

N[C@@H](CCC(=O)N[C@@H](CCC(=O)N[C@@H](CCC(=O)N[C@@H](CC(=O)O)C(=O)N[C@@H](CCC(=O)O)C(=O)O)C(=O)O)C(=O)O)C(=O)O [Glu*Glu*Glu*Asp-Glu] ({γGlu-γGlu-γGlu}-Asp-Glu-OH; N-terminus and C-terminus assumed)
stability in serum [2]: high stability

N[C@@H](CC(=O)O)C(=O)N[C@@H](CCC(=O)N[C@@H](CCC(=O)N[C@@H](CC(=O)O)C(=O)N[C@@H](CCC(=O)O)C(=O)O)C(=O)O)C(=O)O [Asp-Glu*Glu*Asp-Glu] (H-D[γGlu][γGlu]DE-OH; N-terminus and C-terminus assumed)
stability to hydrolysis in plasma [3]: completely stable | stability to hydrolysis in plasma [4]: completely stable

NC(=O)CC[C@H](NC(=O)[C@H](CC(=O)O)NC(=O)CC[C@H](NC(=O)CC[C@H](NC(=O)CC[C@H](N)C(=O)O)C(=O)O)C(=O)O)C(=O)O [Glu*Glu*Glu*Asp-Gln] ({γGlu-γGlu-γGlu}-Asp-Gln-OH; N-terminus and C-terminus assumed)
stability in serum [2]: high stability
